According to PubChem BioAssay (NCI):
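Growth conditions: 96-well plates. Treatment: test compound, 48 hours, 5 concentrations. Analysis: linear interpolation between bracketing concentrations; unreached endpoints set to highest concentration. At the GI50, growth is halved. Definition used: TGI = concentration required for complete inhibition of growth.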

How the values were obtained:
Test in all cases: DTP human tumour cell line panel, 48 h
NCI-H23 lung = test system: NCI-H23 lung
OVCAR-4 ovarian = test system: OVCAR-4 ovarian
PC-3 prostate = test system: PC-3 prostate
HL-60(TB) leukemia = test system: HL-60(TB) leukemia
T-47D breast = test system: T-47D breast
RPMI-8226 leukemia = test system: RPMI-8226 leukemia
SK-OV-3 ovarian = test system: SK-OV-3 ovarian
K-562 leukemia = test system: K-562 leukemia
IGROV1 ovarian = test system: IGROV1 ovarian
A498 renal = test system: A498 renal
UACC-62 melanoma = test system: UACC-62 melanoma
SK-MEL-28 melanoma = test system: SK-MEL-28 melanoma
SF-268 CNS = test system: SF-268 CNS
RXF 393 renal = test system: RXF 393 renal
NCI-H460 lung = test system: NCI-H460 lung
OVCAR-5 ovarian = test system: OVCAR-5 ovarian
SR leukemia = test system: SR leukemia
NCI-H522 lung = test system: NCI-H522 lung
SF-539 CNS = test system: SF-539 CNS
UO-31 renal = test system: UO-31 renal
SW-620 colon = test system: SW-620 colon
HCC-2998 colon = test system: HCC-2998 colon
MCF7 breast = test system: MCF7 breast
HOP-62 NSCLC = test system: HOP-62 NSCLC
SNB-75 CNS = test system: SNB-75 CNS
M14 melanoma = test system: M14 melanoma
SK-MEL-5 melanoma = test system: SK-MEL-5 melanoma
ACHN renal = test system: ACHN renal
BT-549 breast = test system: BT-549 breast
OVCAR-3 ovarian = test system: OVCAR-3 ovarian
COLO 205 colon = test system: COLO 205 colon
HOP-92 NSCLC = test system: HOP-92 NSCLC
SF-295 CNS = test system: SF-295 CNS
SNB-19 CNS = test system: SNB-19 CNS
DU-145 prostate = test system: DU-145 prostate
TK-10 renal = test system: TK-10 renal
SK-MEL-2 melanoma = test system: SK-MEL-2 melanoma
SN12C renal = test system: SN12C renal
MDA-MB-435 = test system: MDA-MB-435
A549 NSCLC = test system: A549 NSCLC
CAKI-1 renal = test system: CAKI-1 renal
HT29 colon = test system: HT29 colon
EKVX NSCLC = test system: EKVX NSCLC
MOLT-4 leukemia = test system: MOLT-4 leukemia
HCT-15 colon = test system: HCT-15 colon
786-0 renal = test system: 786-0 renal
U251 CNS = test system: U251 CNS
NCI-H226 lung = test system: NCI-H226 lung
CCRF-CEM leukemia = test system: CCRF-CEM leukemia
LOX IMVI melanoma = test system: LOX IMVI melanoma
HCT-116 colon = test system: HCT-116 colon
MDA-MB-231 breast = test system: MDA-MB-231 breast
HS 578T breast = test system: HS 578T breast
NCI/ADR-RES ovarian = test system: NCI/ADR-RES ovarian

## Clc1nc(Cl)c2ncn(CC#CCn3cnc4c(Cl)nc(Cl)nc43)c2n1
NCI-H23 lung
  GI50: 3.05 µM
  TGI: 8.52 µM
OVCAR-4 ovarian
  GI50: 1.89 µM
  TGI: 3.36 µM
PC-3 prostate
  GI50: 3.61 µM
  TGI: 11.1 µM
HL-60(TB) leukemia
  GI50: 2.41 µM
  TGI: > 100 µM
T-47D breast
  GI50: 1.85 µM
  TGI: 4.13 µM
RPMI-8226 leukemia
  GI50: 2.09 µM
  TGI: 5.07 µM
SK-OV-3 ovarian
  GI50: 10.5 µM
  TGI: 22.5 µM
K-562 leukemia
  GI50: 2.39 µM
  TGI: 6.24 µM
IGROV1 ovarian
  GI50: 1.54 µM
  TGI: 3.37 µM
A498 renal
  GI50: 10.6 µM
  TGI: 23 µM
UACC-62 melanoma
  GI50: 1.96 µM
  TGI: 3.66 µM
SK-MEL-28 melanoma
  GI50: 1.82 µM
  TGI: 3.39 µM
SF-268 CNS
  GI50: 1.89 µM
  TGI: 3.76 µM
RXF 393 renal
  GI50: 1.35 µM
  TGI: 2.98 µM
NCI-H460 lung
  GI50: 3.41 µM
  TGI: 12.4 µM
OVCAR-5 ovarian
  GI50: 10.5 µM
  TGI: 25.6 µM
SR leukemia
  GI50: 0.38 µM
  TGI: 2.19 µM
NCI-H522 lung
  GI50: 1.56 µM
  TGI: 3.51 µM
SF-539 CNS
  GI50: 2.56 µM
  TGI: 6.86 µM
UO-31 renal
  GI50: 1.67 µM
  TGI: 3.31 µM
SW-620 colon
  GI50: 1.84 µM
  TGI: 3.46 µM
HCC-2998 colon
  GI50: 2.08 µM
  TGI: 4.05 µM
MCF7 breast
  GI50: 2.18 µM
  TGI: 5.96 µM
HOP-62 NSCLC
  GI50: 1.9 µM
  TGI: 3.89 µM
SNB-75 CNS
  GI50: 2.87 µM
  TGI: 7.76 µM
M14 melanoma
  GI50: 2.6 µM
  TGI: 5.62 µM
SK-MEL-5 melanoma
  GI50: 11.1 µM
  TGI: 23.3 µM
ACHN renal
  GI50: 1.9 µM
  TGI: 3.32 µM
BT-549 breast
  GI50: 3.3 µM
  TGI: 11.3 µM
OVCAR-3 ovarian
  GI50: 2.06 µM
  TGI: 3.71 µM
COLO 205 colon
  GI50: 1.7 µM
  TGI: 3.36 µM
HOP-92 NSCLC
  GI50: 2.21 µM
  TGI: 4.02 µM
SF-295 CNS
  GI50: 6.69 µM
  TGI: 20.4 µM
SNB-19 CNS
  GI50: 2.01 µM
  TGI: 4.25 µM
DU-145 prostate
  GI50: 1.78 µM
  TGI: 3.23 µM
TK-10 renal
  GI50: 5.51 µM
  TGI: 17.8 µM
SK-MEL-2 melanoma
  GI50: 2.53 µM
  TGI: 5.55 µM
SN12C renal
  GI50: 2.66 µM
  TGI: 6.5 µM
MDA-MB-435
  GI50: 3.25 µM
  TGI: 8.56 µM
A549 NSCLC
  GI50: 2.49 µM
  TGI: 9.32 µM
CAKI-1 renal
  GI50: 2.05 µM
  TGI: 3.91 µM
HT29 colon
  GI50: 1.89 µM
  TGI: 3.69 µM
EKVX NSCLC
  GI50: 2.6 µM
  TGI: 6.2 µM
MOLT-4 leukemia
  GI50: 0.554 µM
  TGI: 2.48 µM
HCT-15 colon
  GI50: 1.99 µM
  TGI: 4.06 µM
786-0 renal
  GI50: 3.46 µM
  TGI: 11.4 µM
U251 CNS
  GI50: 2.28 µM
  TGI: 4.75 µM
NCI-H226 lung
  GI50: 3.18 µM
  TGI: 7.94 µM
CCRF-CEM leukemia
  GI50: 1.9 µM
  TGI: 3.89 µM
LOX IMVI melanoma
  GI50: 1.86 µM
  TGI: 3.41 µM
HCT-116 colon
  GI50: 1.78 µM
  TGI: 3.42 µM
MDA-MB-231 breast
  GI50: 2.42 µM
  TGI: 4.93 µM
HS 578T breast
  GI50: 2.49 µM
  TGI: 6.79 µM
NCI/ADR-RES ovarian
  GI50: 3.73 µM
  TGI: 24.1 µM
